We go through 73 molecules from ChEMBL document CHEMBL4483862, “Open-source discovery of chemical leads for next-generation chemoprotective antimalarials” (2018).

The subject of the experiment is Plasmodium berghei. As to the kind of experiment: Luciferase/luciferin-expressing antifolate-resistant parasites were used to infect a culture of HepG2 cells that were pre-incubated with compounds. Infected hepatocytes emit light due to the luciferase reaction. Assay results are presented as the percent inhibition of light emission compared to control. […]. Format: functional. The following applies: sporozoite; for IC50: read-out: LUCIFERASE INFECTION ASSAY - IC50; for IC90: read-out: LUCIFERASE INFECTION ASSAY - IC90.

With `CNc1ccccc1C(C)(C)c1cc(-c2ccc(F)cc2)no1`, the IC50 (as a rule, the concentration at which inhibition is half-maximal) was found to be 8.62 µM and the IC90 (as a rule, the point of the concentration-response curve where the effect stands at 90%) was > 10 µM.
The matching figures for `CN(c1nc2ccccc2nc1O)C1CCCCC1`: > 10 µM and > 10 µM.
The matching figures for `Nc1cc(Cl)ccc1Oc1ccc2ccccc2c1`: > 10 µM and > 10 µM.
On the same counts, the results for `CC(C)Cc1ccc(C(C)NC(=O)c2ccc(O)nc2)cc1` (stereo unspecified) are > 10 µM and > 10 µM.
As for `CN(CC(=O)Nc1ccc(F)c(F)c1F)c1cnccn1`, the IC50 is > 10 µM and the IC90 was > 10 µM.
For the molecule `c1ccc2c(C3=NN=C(NC4CCCCC4)SC3)c[nH]c2c1`, the IC50 is > 10 µM and the IC90 was > 10 µM.
As to `Nc1ccc(SC(F)(F)F)cc1`, the IC50 was > 10 µM and the IC90 was > 10 µM.
Regarding `Cn1cccc1C(=O)OCC(=O)NCc1cccs1`, the IC50 is > 10 µM and the IC90 is > 10 µM.
`CN(C)C(=O)COC(=O)c1cccc(CN2C(=O)c3ccccc3C2=O)c1`: the IC50 is > 10 µM and the IC90 is > 10 µM.
Take `O=c1c2ccccc2cnn1-c1nc2ccccc2s1`: the IC50 came out at 0.212 µM and the IC90 was 1.01 µM.
On the same counts, the results for `Cc1ccc(C(C)C)cc1OCc1nnc2n(C)c(=O)c3ccccc3n12` are > 10 µM and > 10 µM.
On to `Cc1ccc2nc(CN3CCCCC3c3nc4ccccc4s3)cn2c1` (stereo unspecified), for which the IC50 is > 10 µM and the IC90 is > 10 µM.
For the molecule `CC(=O)c1c(C)[nH]c(C(=O)Nc2nc(-c3ccc4c(c3)CCC4)cs2)c1C`, the IC50 was 6.23 µM and the IC90 is > 10 µM.
The matching figures for `Cc1nc(Sc2nnc3ccccn23)c2c3c(sc2n1)CCCC3`: 2.94 µM and 3.52 µM.
In the case of `Cc1ccccc1CN1CCN(c2cc(=O)n3ccccc3n2)CC1`, the IC50 amounted to 6.42 µM and the IC90 is > 10 µM.
The matching figures for `Cc1cc(C(=O)OCC(=O)NC2CCCCCCC2)c(C)n1-c1ccccc1`: > 10 µM and > 10 µM.
Regarding `Cc1cc(C(=O)NCCNC(=O)c2cccn2C)c2nc3n(c2n1)CCCCC3`, the IC50 was > 10 µM and the IC90 was > 10 µM.
As to `CC(=O)N(c1ccc(Cl)c(Cl)c1)c1nc(CN2CCCCCC2)cs1`, the IC50 amounted to 4.55 µM and the IC90 amounted to 9.28 µM.
On the same counts, the results for `Cc1cc2oc3c(c2cc1NS(=O)(=O)c1cccs1)CC(C)CC3` (stereo unspecified) are > 10 µM and > 10 µM.
The matching figures for `CC(c1ccc(-n2cncn2)cc1)N(C)c1ccc2nnnn2n1` (stereo unspecified): > 10 µM and > 10 µM.
With `Cc1ccc(C)c(OCCCN2C(=O)NC(Cc3c[nH]c4ccccc34)C2=O)c1` (stereo unspecified), the IC50 is > 10 µM and the IC90 was > 10 µM.
For the molecule `COc1ccc(-c2cc(NC(=O)c3cc(Cl)c(Cl)[nH]3)ccc2OC)cc1`, the IC50 is 3.49 µM and the IC90 turned out to be 4.33 µM.
On the same counts, the results for `CCCn1c(SCc2ccccc2F)n[nH]c1=O` are > 10 µM and > 10 µM.
On the same counts, the results for `Cc1ccc(COC(=O)c2ccccc2S(=O)(=O)N2CCCCC2)cc1` are 9.7 µM and > 10 µM.
As for `CCc1ccc(C(NCC(=O)NC(=O)NC)C(C)C)cc1` (stereo unspecified), the IC50 is > 10 µM and the IC90 was > 10 µM.
Consider `O=C(Cc1ccccc1)OC1(C(F)(F)F)C(=O)Nc2c1ccc1ccccc21` (stereo unspecified), for which the IC50 was > 10 µM and the IC90 was > 10 µM.
With `Cc1cc(CNC(C)c2cc(F)c(Cl)cc2Cl)cc(C)c1O` (stereo unspecified), the IC50 is > 10 µM and the IC90 was > 10 µM.
On to `Cc1[nH]c2ccc(C(=O)Nc3nc(CN4CCCC(C)C4)cs3)cc2c1C` (stereo unspecified), for which the IC50 is > 10 µM and the IC90 is > 10 µM.
Take `COc1ccc(C(=O)Nc2ccc(N3CCOCC3)cc2)cn1`: the IC50 is > 10 µM and the IC90 was > 10 µM.
For the molecule `Cc1cccc(COC(=O)C2CCN(C3=NS(=O)(=O)c4ccccc43)CC2)c1`, the IC50 is > 10 µM and the IC90 is > 10 µM.
`CCCn1c(NC(=O)C2CC(=O)N(Cc3ccc(C)cc3)C2)nc2ccccc21` (stereo unspecified): the IC50 is > 10 µM and the IC90 was > 10 µM.
As for `Cc1nn(CC(C)C)c(C)c1CC(=O)NCc1ccccc1Cn1cccn1`, the IC50 was > 10 µM and the IC90 is > 10 µM.
Take `CNc1ccccc1C(C)(C)c1cc(-c2ccc(Cl)cc2)no1`: the IC50 stood at 4.84 µM and the IC90 was > 10 µM.
On the same counts, the results for `Cc1ccc(C)c(OCCSc2ccc(C(=O)NC3CC3)cn2)c1` are 3.35 µM and 3.93 µM.
The matching figures for `CCC(C)(C)C1CCC(NC(=O)c2ccc(OC)c(OC)c2OC)CC1` (stereo unspecified): > 10 µM and > 10 µM.
Take `O=C(NC1CC1)N1CCN(S(=O)(=O)c2ccc3c(c2)OCCCO3)CC1`: the IC50 was > 10 µM and the IC90 was > 10 µM.
On to `O=C(c1cccc(-c2nn[nH]n2)c1)N1CCC2CCCCC2C1` (stereo unspecified), for which the IC50 was > 10 µM and the IC90 is > 10 µM.
On to `COc1ccc(N(CCC(N)=O)CC(=O)NC(C)c2ccccc2OC)cc1` (stereo unspecified), for which the IC50 was > 10 µM and the IC90 is > 10 µM.
As to `O=C(Cc1cc(Cl)c2c(c1)OCCCO2)NCc1ccco1`, the IC50 was determined as 6.35 µM and the IC90 was > 10 µM.
The matching figures for `OC(CNCC1COc2ccccc2C1)COc1ccc(Cl)cc1Cl` (stereo unspecified): > 10 µM and > 10 µM.
On the same counts, the results for `CC1N(C)c2ccc(/C=C/c3cc[n+](C)cc3)cc2C1(C)C` (stereo unspecified) are 3.32 µM and 4.04 µM.
Consider `CCOc1ccc(CN(C)c2cc(-c3ccccc3)c3ccccc3n2)cc1OC`, for which the IC50 is > 10 µM and the IC90 is > 10 µM.
Take `O=C(CCSc1nc(NC2CC2)c2ccccc2n1)N1CCc2ccccc21`: the IC50 is 3.46 µM and the IC90 came out at 7.86 µM.
As to `Cc1cc(C(=O)COc2ccc(-c3nnco3)cc2)c(C)n1-c1ccc(F)cc1`, the IC50 was 8.4 µM and the IC90 is > 10 µM.
The matching figures for `Cc1cc2ccccn2c1C(=O)c1cc2c(C)nn(-c3ccccc3)c2s1`: > 10 µM and > 10 µM.
On the same counts, the results for `CNS(=O)(=O)c1cc(NS(=O)(=O)/C=C/c2ccccc2)ccc1C` are > 10 µM and > 10 µM.
On the same counts, the results for `O=C(CSc1nnc(-c2ccncc2)[nH]1)NC1CCCc2ccccc21` (stereo unspecified) are > 10 µM and > 10 µM.
As to `COCCN(CCOC)C(=O)CSc1nnc(/C=C/c2ccccc2)[nH]1`, the IC50 is > 10 µM and the IC90 is > 10 µM.
As for `CCOc1cc(C(=O)NCCNC(=O)C(C)C)cc(OCC)c1OCC`, the IC50 is > 10 µM and the IC90 is > 10 µM.
For the molecule `COC(=O)CCSc1nnc(Nc2ccc(OC(F)(F)F)cc2)s1`, the IC50 is > 10 µM and the IC90 is > 10 µM.
Regarding `O=C(COc1nnc2ccccn12)Nc1cccc2ccccc12`, the IC50 is > 10 µM and the IC90 is > 10 µM.
As for `CC(Nc1ccc(OC(F)(F)F)cc1)C(=O)Nc1ccc(C#N)c(Cl)c1` (stereo unspecified), the IC50 came to 8.9 µM and the IC90 is > 10 µM.
On the same counts, the results for `NS(=O)(=O)c1cccc(NC(=O)CCc2ccccc2Cl)c1` are > 10 µM and > 10 µM.
On the same counts, the results for `CC1CC1C(=O)Nc1cccc(S(=O)(=O)N(C)c2ccccc2)c1` (stereo unspecified) are > 10 µM and > 10 µM.
On the same counts, the results for `COC(=O)c1c(C)[nH]c(-c2csc(N3CCCCC3)n2)c1C` are > 10 µM and > 10 µM.
With `O=C(C1CCCCC1)N1N=C2/C(=C/c3ccco3)CCCC2C1c1ccco1` (stereo unspecified), the IC50 was > 10 µM and the IC90 is > 10 µM.
For the molecule `C(=C(c1nc2ccccc2s1)c1nc2ccccc2s1)c1ccccn1`, the IC50 was > 10 µM and the IC90 was > 10 µM.
With `Cc1cc(C(=O)CN2C(=O)NC(C)(c3ccc(C(C)(C)C)cc3)C2=O)c(C)n1C` (stereo unspecified), the IC50 is > 10 µM and the IC90 is > 10 µM.
As to `Cc1ccc(Cn2c3nc(C#N)c(C#N)nc3c3c(=O)nc(C)[nH]c32)cc1`, the IC50 was > 10 µM and the IC90 is > 10 µM.
As to `COc1ccc(C(NCc2cccc3ccccc23)C2CC2)cc1` (stereo unspecified), the IC50 is > 10 µM and the IC90 was > 10 µM.
On to `Cc1nn(-c2ccccc2)c2sc(C(=O)N3c4ccccc4CC3C)cc12` (stereo unspecified), for which the IC50 was > 10 µM and the IC90 is > 10 µM.
`O=C(CSc1nnnn1CC1CCCO1)NCc1ccc2c(c1)OCO2` (stereo unspecified): the IC50 was > 10 µM and the IC90 is > 10 µM.
With `COc1ccc(-n2ccnc2SCc2nc(N)c3ccccc3n2)cc1`, the IC50 was > 10 µM and the IC90 was > 10 µM.
Take `COc1ccc(C(=O)C2CCN(C(=O)c3cnc(C)cn3)CC2)cc1`: the IC50 was > 10 µM and the IC90 is > 10 µM.
In the case of `Cc1ccc(-n2c(C)cc(/C=C3\N=C4CCCCCN4C3=O)c2C)c(C)c1`, the IC50 was > 10 µM and the IC90 is > 10 µM.
Take `Fc1ccc(-c2c[n+](-c3ccccc3)c3n2CCCS3)cc1`: the IC50 was > 10 µM and the IC90 is > 10 µM.
`Cc1[nH]c2ccccc2c1C(c1ccccc1)N1CCN(C)CC1` (stereo unspecified): the IC50 is > 10 µM and the IC90 is > 10 µM.
As to `COc1cccc(-c2csc(-c3nnc4n3-c3ccccc3SC4)n2)c1`, the IC50 amounted to 2.69 µM and the IC90 was 3.9 µM.
The matching figures for `CCOc1ccc(Oc2ccc(S(=O)(=O)NC(C)c3ccncc3)cc2)cc1` (stereo unspecified): 0.559 µM and 4.85 µM.
On the same counts, the results for `CSc1nnc(Sc2nc(-c3cccnc3)nc3ccccc23)s1` are > 10 µM and > 10 µM.
The matching figures for `O=C(Nc1ccnn1-c1nc2ccccc2[nH]1)C(c1ccccc1)c1ccccc1`: 5.95 µM and 9.69 µM.
Regarding `Cc1cccc(-c2nc(-c3cc(C)n(-c4nnc[nH]4)c3C)cs2)c1`, the IC50 came to 9.67 µM and the IC90 is > 10 µM.
On the same counts, the results for `C=CCn1c(COc2ccccc2F)nnc1Sc1cc(C)nc2ncnn12` are > 10 µM and > 10 µM.
